Molecular target: T1, human subtype 5 somatostatin receptor (Homo sapiens, UniProt P35346)
T1 construct: host or cells: CHO cells, stably transfected; membranes prepared from them
Assay: SSTR5 radioligand binding assay (125I-labeled 11-Tyr somatostatin-14 tracer, membranes of transfected CHO cells)
Details: CHO cell membranes, Ki calculated from IC50 by Cheng-Prussoff equation
Experimental: A CHO cell line stably transfected with a plasmid encoding the human subtype 5 somatostatin receptor (GenBank accession number D16827) was obtained from Euroscreen. Cells were cultured and used for binding and functional assays.
Membranes of these cells were prepared by sonication in the presence of protease inhibitors and subsequent fractionating centrifugation. The protein concentration in the membrane preparation was determined using a commercial kit (BCA kit, Pierce, USA). Membranes were stored at −80° C. until use. After thawing, membranes were diluted in assay buffer (50 mM Tris-HCl at pH 7.4, 5 mM MgCl2 and 0.20% BSA) and subjected to dounce homogenization.
For binding studies, 0.1 mL membrane suspension, corresponding to app. 6×10^−15 mol receptor, was incubated for 1 h at room temperature with 0.05 nM ^125I-labeled tracer (11-Tyr somatostatin-14, Perkin-Elmer) and either test compounds in varying concentrations or, for the determination of non-specific binding, 0.001 mM non-labeled somatostatin-14. The incubation was stopped by filtration through GF/B glassfiber filters and washing with ice-cold wash buffer (50 mM Tris-HCl at pH 7.4). The bound radioactivity was measured after application of a scintillation cocktail (Microscint 40) and expressed as disintegrations per minute (dpm).
The receptor concentration was determined in a prior saturation experiment where a fixed, arbitrary amount of membranes was incubated with a concentration range of radio-labeled tracer. This allows estimating the total number of specific binding sites per amount of protein (i.e., Bmax), typically between 1 and 5 pmol/mg.
The concentration of the test compound required to result in half maximal inhibition of binding of the radio-labeled tracer (IC50) was estimated from a concentration-versus-dpm graph. The binding affinity (Ki) was calculated from the IC50 by applying the Cheng-Prussoff equation for single binding sites.

T1 sequence (P35346 whole entry): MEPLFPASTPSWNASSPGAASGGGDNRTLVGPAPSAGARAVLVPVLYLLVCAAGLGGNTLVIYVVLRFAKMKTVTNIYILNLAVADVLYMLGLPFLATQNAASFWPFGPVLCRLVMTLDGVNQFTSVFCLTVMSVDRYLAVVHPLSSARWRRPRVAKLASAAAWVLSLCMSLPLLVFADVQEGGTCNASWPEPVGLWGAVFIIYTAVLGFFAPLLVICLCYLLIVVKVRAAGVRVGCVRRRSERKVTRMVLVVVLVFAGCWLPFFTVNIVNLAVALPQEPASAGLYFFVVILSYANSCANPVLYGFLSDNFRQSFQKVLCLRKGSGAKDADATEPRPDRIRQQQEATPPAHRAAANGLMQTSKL

Row | Structure (SMILES) | Ki
1 | CCOc1cc(CN2CCC(Nc3ncc(C#N)c(N)n3)CC2)cc(OCOC)c1I [Example 137, 4-amino-2-[1-(3-ethoxy-4-iodo-5-methoxymethoxy-benzyl)-piperidin-4-ylamino]-pyrimidine-5-carbonitrile] | 0.0064 µM
2 | CCOc1cc(CN2CCC(Nc3nc(N)c4cc(C)ccc4n3)CC2)ccc1OC [Example 8, N^2-[1-(3-Ethoxy-4-methoxy-benzyl)-piperidin-4-yl]-6-methyl-quinazoline-2,4-diamine] | 0.49 µM
3 | CCOc1cc(CN2CCC(Nc3ncc(-c4ccc(OC)cc4)cn3)CC2)ccc1Cl [Example 161, [1-(4-chloro-3-ethoxy-benzyl)-piperidin-4-yl]-[5-(4-methoxy-phenyl)-pyrimidin-2-yl]-amine] | 0.031 µM

— patent US7855194B2, “Pyrimidine, quinazoline, pteridine and triazine derivatives” (Hoffmann-La Roche Inc., priority 2006, dated 2010)
